Experimental data as given in the METLIN SMRT retention time set (Domingo-Almenara et al. 2019).

Assay: gradient 5% acetonitrile 3 min, to 50% in 2 min, to 85% in 15 min, held 3 min, 100 µL/min
Details: column: Zorbax Extend-C18 2.1 x 50 mm; eluents: water / acetonitrile, 0.1% formic acid
Summary of the method: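 Values are retention times taken from adduct peaks that software picked and an analyst inspected. The pure standards were run as mixtures of ~100 molecules on HPLC linked to a quadrupole time-of-flight mass spectrometer, in positive and negative ionization mode. A Zorbax Extend-C18 column (2.1 × 50 mm, 1.8 μm) was used at 100 μL/min with water and acetonitrile, each including 0.1% formic acid.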

| RP-LC retention time | SMILES |
| --- | --- |
| 717 s | O=C(COc1ccc(F)c(F)c1)Nc1cnc(-c2cccnc2)nc1 |
| 630 s | Cc1cc(NC(=O)C2CCN(C(=O)c3ccco3)CC2)no1 |
| 577 s | Cc1nnc(C2CC3(CCN(CCCO)CC3)CN2Cc2ccccc2)o1 (stereo unspecified) |
| 887 s | NC(=NC1C2CC3CC(C2)CC1C3)Nc1ccc(I)cc1 (stereo unspecified) |
| 555 s | COc1ccccc1-c1[nH]ncc1CN1CC(F)(F)C[C@H]1CN1CCOCC1 |
| 685 s | CCn1c(CCNC(=O)c2ccc3ccccc3n2)nc2cccnc21 |
| 588 s | CCn1c(CC2CCN(C(=O)NCCc3ccccc3)C2)nc2cccnc21 (stereo unspecified) |
| 575 s | CCC1CN2C=NC(N3CCN(C(=O)c4ccoc4)CC3)=CC2=N1 (stereo unspecified) |
| 550 s | CCN(CC)c1ccc(C(=O)N2CCc3nc[nH]c3C2)cc1 |
| 816 s | CN(CC1(C)CCOCC1)C(=O)COc1ccc(Cl)cc1 |
| 1450 s | COc1cccc(C2Cn3nnc(-c4nc(-c5ccc(C(C)(C)C)cc5)no4)c3CO2)c1 (stereo unspecified) |
| 715 s | O=C(NCc1ccco1)C1CCN(S(=O)(=O)c2cc(C(=O)N3CCCC3)cs2)CC1 |
| 733 s | CCCNC(=O)C1CCCN(c2ccc(SCC(=O)Nc3ccc(Cl)cc3F)nn2)C1 (stereo unspecified) |
| 1010 s | CCn1cc(-c2nc(C)c(C(=O)Nc3ccc(F)cc3F)s2)c2cccnc21 |
| 1130 s | Cc1csc(-c2cc(S(=O)(=O)N3CCC(C)CC3)cn2CC(=O)N2CCCCC2)n1 |
| 921 s | CCc1nn2c(CNS(=O)(=O)c3ccccc3C)c(-c3ccccc3)nc2s1 |
| 559 s | Cc1cnc(C2CC2)n1C1CCN(Cc2ccc(F)cc2F)C1 (stereo unspecified) |
| 983 s | COc1ccc(-c2ncc3c(n2)CCN(C(=O)c2ccccc2C(F)(F)F)C3)cc1 |
| 621 s | O=C(Nc1ccccc1F)NC1CCCN(c2cc(-c3ccncc3)[nH]n2)C1 (stereo unspecified) |
| 872 s | Cc1cc(=O)n(CC(=O)NC(C)CCc2ccccc2)c(N2CCc3ccccc3C2)n1 (stereo unspecified) |
| 619 s | O=C([C@@H]1C[C@H](F)CN1C(=O)c1ccccc1Cl)N1CCOCC1 |
| 850 s | CC(C)Cn1cc(CCNC(=O)c2cc3ccccc3[nH]2)c2cccnc21 |
| 852 s | O=S(=O)(Cc1cccc(F)c1)NCCc1ccsc1 |

| RP-LC retention time | SMILES |
| --- | --- |
| 1020 s | O=[N+]([O-])c1ccc(CSc2nc3ccccc3o2)cc1 |
| 809 s | O=C(CC(c1ccccc1)c1ccccc1)NCC(O)c1cccs1 (stereo unspecified) |
| 915 s | CCc1ccc(CNC(=O)c2nc3cccnc3n(CC)c2=O)cc1 |
| 623 s | O=C(c1ccc(Cl)s1)N1CCCn2nc(-c3ccncc3)cc2C1 |
| 1230 s | CC1Oc2ccc(-c3csc(NC(=O)CCC4CCCCC4)n3)cc2N(C)C1=O (stereo unspecified) |
| 576 s | CCN1CCN(CCNC(=O)c2ccc(CS(=O)c3cccc(Cl)c3)o2)CC1 (stereo unspecified) |
| 816 s | CCc1ccccc1S(=O)(=O)Nc1ccc2c(c1)CCC(=O)N2CCOC |
| 786 s | O=C(C1=CN(c2cc(F)cc(F)c2)c2ccccc2S1(=O)=O)N1CCCC1 |
| 988 s | CCS(=O)(=O)c1ccc2c(c1)N(Cc1nc(-c3ccc(Br)cc3)no1)C(=O)CO2 |
| 865 s | Cc1nnc(-c2cc(NC(=O)c3ccc(F)cc3Cl)c(C)s2)o1 |
| 702 s | O=C(Nc1cnn(-c2ncncc2N2CCCCC2)c1)c1ccc2c(c1)OCO2 |
| 659 s | CCCn1cnc2cc(CNC(=O)c3cc4ccccc4[nH]3)ccc21 |
| 640 s | CCc1cc(N2CCN(C(=O)c3ccc(Br)cc3)CC2)nc2nnc(C)n12 |
| 599 s | CC(C)n1c(-c2cccc(C(=O)NCc3ccncc3)c2)nc2cccnc21 |
| 831 s | COc1ccc(CNC(=O)Cn2ccc3ccc(N4CCOCC4)nc32)cc1 |
| 569 s | CC1(C(=O)NC2CCN(c3cc(N4CCOCC4)cnn3)C2)CCCCC1 (stereo unspecified) |
| 964 s | CCN(Cc1ccccc1)C(=O)CSc1cc(N2CCN(c3ccc(OC)cc3)CC2)ncn1 |
| 726 s | CCOC(=O)c1csc(NC(=O)c2ccc3ncsc3c2)n1 |
| 958 s | Cc1cc(Cl)cc2sc(NCC3CCCO3)nc12 (stereo unspecified) |
| 1090 s | Cc1cc(C(=O)NCc2ccc(F)cc2)nc2cc(-c3cccs3)nn12 |
| 1260 s | CN(C1CCCCC1)S(=O)(=O)c1ccc(C(=O)Nc2nc3c(s2)Cc2ccccc2-3)cc1 |
| 714 s | COc1cccc(CNS(=O)(=O)c2ccc3c(c2)CCCC(=O)N3)c1 |
| 683 s | CCN1CCN(C(=O)C2CCc3sc(C(=O)N(CC)CC)cc3C2)CC1 (stereo unspecified) |

| RP-LC retention time | SMILES |
| --- | --- |
| 841 s | CCN1c2cc(Cl)ccc2C(=O)NC12CCN(C(=O)Nc1ccc(OC)cc1C)CC2 |
| 967 s | CC1=C(c2ccc(C)c(C)c2)S(=O)(=O)N=C1N1CCCN(C(=O)CC2CCCC2)CC1 |
| 676 s | CC(C)CCNC(=O)c1ccc2nc(CCc3ccc(NC(=O)C(C)C)cc3)[nH]c2c1 |
| 1010 s | Cn1nc(-c2nnc(-c3ccccc3F)o2)c2c1CCN(S(=O)(=O)c1ccc3c(c1)CCC3)C2 |
| 936 s | O=C(Nc1ccc(OCc2nnc(-c3ccccc3)o2)cc1)c1ccc(Br)o1 |
| 1260 s | CC(C)c1ccc(S(=O)(=O)N2CCCC2c2nc(-c3ccc(F)cc3)no2)cc1 (stereo unspecified) |
| 670 s | O=S(=O)(C1CC1)N1CCC(c2nc(-c3ccncc3)no2)C1 (stereo unspecified) |
| 799 s | Cc1ccc(N2CC(c3noc(-c4ccc(C)nc4)n3)CC2=O)cc1 (stereo unspecified) |
| 714 s | Cc1ccc(NC(=O)Cn2ncc3c(c2=O)N(C)C(=O)CS3)c(Br)c1 |
| 708 s | Cc1nnc(-c2ccc(OCC(=O)N(C(C)C)C(C)C)cc2)o1 |
| 752 s | CCCC(=O)Nc1nc(-c2ccc3c(c2)NC(=O)CO3)c(C)s1 |
| 584 s | O=C(C1CCCCC1)N1CCCC(c2n[nH]c(C3CC3)n2)C1 (stereo unspecified) |
| 864 s | Cc1csc(-c2ccc(N3CCN(C(=O)c4nn(C)c5ccccc45)CC3)nc2)n1 |
| 1020 s | Cc1cc(C)nc(N2CCN(c3cc(C)nc4c(C)c(-c5ccc(Cl)cc5)nn34)CC2)n1 |
| 588 s | CC(=O)Nc1ccc(N2CCN(C3CCCCC3)CC2)cc1C(=O)O |
| 700 s | CC1(C)CC(=O)c2cn(-c3ccccc3)c(=O)c(C(=O)Nc3cccnc3)c2C1 |
| 723 s | COCCNC(=O)NCc1ccc2c(c1)N(C(=O)c1ccc(C)cc1)CC2 |
| 708 s | CCCCCN1CC(=O)N(c2ccc(OC)cc2)[C@@H]2CS(=O)(=O)C[C@@H]21 |
| 661 s | O=C(NCc1cc(F)cc(F)c1)c1ccnc(N2CCNC(c3ccccc3)C2)c1 (stereo unspecified) |
| 1110 s | O=C(Nc1ccc2ccccc2c1)N1CCN(c2ncc(C(F)(F)F)cc2Cl)CC1 |
| 680 s | CN(C)c1cccc(C(=O)N2CCCN(c3cc(-c4ccc5c(c4)OCO5)[nH]n3)CC2)c1 |
| 864 s | CCCCc1ccc(NC(=O)N2CCCC2c2nncn2C2CCCC2)cc1 (stereo unspecified) |
| 649 s | CCn1cc(CCNC(=O)Nc2ccc(OC)cc2OC)c2cccnc21 |

| RP-LC retention time | SMILES |
| --- | --- |
| 635 s | CCC(C)C(=O)N1CC(N(Cc2ccncc2)CC(C)C)C1 (stereo unspecified) |
| 840 s | CCS(=O)(=O)c1ccc(-c2ccc(NC(=O)c3cc(Cl)ccc3Cl)cc2)nn1 |
| 1270 s | CCC(C)n1c(=O)c2ccccc2n(Cc2nc(-c3cccc(Cl)c3)no2)c1=O (stereo unspecified) |
| 611 s | Cc1ccc2c(Nc3cccc(Br)c3)c(C(=O)N3CCOCC3)cnc2n1 |
| 1170 s | CCN(C(C)=O)c1nc(-c2ccc(Br)cc2)cs1 |
| 814 s | Cc1cc2c(cc1S(=O)(=O)N1CCCC1C(=O)N1CCN(c3ccccc3)CC1)OC(C)C(=O)N2 (stereo unspecified) |
| 659 s | CN(C1CCc2nn(CC3CC3)c(=O)n2CC1)S(=O)(=O)c1cccnc1 (stereo unspecified) |
| 714 s | CCOCCCNC(=O)CN1C(=O)CCn2nc(-c3cn(C)c4ccccc34)cc21 |
| 604 s | CCN1CCCC1CN(CC(=O)N1CCNCC1)S(=O)(=O)c1ccc(C(C)C)cc1 (stereo unspecified) |
| 692 s | CSc1ncc2[nH]c(C(O)c3ccccc3)nc2n1 (stereo unspecified) |
| 880 s | CC1CCN(C(=O)CCCN2C(=O)CCn3nc(-c4cn(C)c5ccccc45)cc32)CC1 |
| 996 s | CN(C)S(=O)(=O)c1ccc2c(c1)N(CC(=O)NCCC1=CCCCC1)C(=O)C1CCCCN21 (stereo unspecified) |
| 665 s | CCCCN(C(=O)C1CC1)C1CCS(=O)(=O)C1 (stereo unspecified) |
| 791 s | COc1ccc2c(CCNC(=O)Nc3ccccc3)c[nH]c2c1 |
| 678 s | Cc1cccc(N2CC(C(=O)NC(C)C)CC2=O)c1 (stereo unspecified) |
| 869 s | CCC(=O)N(C1CCOCC1)C1CCN(S(=O)(=O)c2ccc(C)c(C)c2)CC1 |
| 584 s | O=C(NCc1ccco1)c1ccc(NC(=O)C2CC2)cc1N1CCCCCC1 |
| 610 s | COc1ccc(-c2nc(C)cc(C)c2CNC(=O)c2cccs2)cc1 |
| 570 s | CN(C)CC1CCN(C(=O)NC2CCCCC2)CC1 |
| 1100 s | Cc1ccccc1CNC(=O)c1nnc(-c2ccc(S(=O)(=O)N3CCC(C)CC3)cc2)o1 |
| 624 s | CCCn1c(C)cnc1C1CN(S(=O)(=O)c2cccc3cccnc23)C1 |
| 1220 s | COc1cccc(-n2c(=O)c(C(=O)Nc3ccc(F)cc3F)c(O)c3cccnc32)c1 |
